“Also recorded” adds a separate entry of the source.

Test [1] deals with Mat Ly Lu-PTHrP cells. In words: Mat Ly Lu-PTHrP cell growth curve (Coulter counter). The class given is cell-based, rat. As to the method:
Growth curve. For growth curves, Mat Ly Lu-PTHrP cells were plated in 6-well plates (Falcon Plastics, Oxnard, Calif.) at seeding densities of 5×10^3 cells/well. Mat Ly Lu-PTHrP cells were grown in the presence of 0.1, 1.0 & 10.0 ug/ml of PSP-94 or vehicle alone for up to 3 days and the ability of PSP-94 to alter cell doubling time was evaluated daily. Medium was changed every two days. The number of cells was counted in a model Z Coulter counter (Coulter Electronics, Beds, UK). Comparison was also made with doubling time of wild type untransfected Mat Ly Lu cells.
Mat Ly Lu cells transfected with vector alone (CMV) or vector expressing PTHrP were seeded at a density of 5×10^3 cells/well in 6-well plates. Mat Ly Lu-PTHrP cells were treated with PSP-94 and were trypsinized and counted using a coulter counter as described herein. Change in cell number following treatment with 10.0 ug/ml of PSP-94 for 72 hrs is illustrated in FIG. 1.
Mat Ly Lu-PTHrP cells were seeded at a density of 5×10^3 cells/well in 6-well plates and treated with different doses (1.0-100.0 ug/ml) of PCK3145 for up to 5 days and were trypsinized and counted using a coulter counter as described herein.

Test [2] can be described thus: Plasma calcium by atomic absorption spectrophotometry in tumor bearing animals. It counts as in vivo, male Copenhagen rats. As to the method:
Control animals received PBS alone as vehicle control.
Other Analytical Methods. Plasma calcium levels were determined by atomic absorption spectrophotometry (model 703, Perkin-Elmer, Norwalk, Conn.). For plasma PTHrP, all samples were tested in two dilutions in PTHrP radio-immunoassay (R.I.A.) kit (Nichols Institute Diagnostics, San Juan Capistrano, Calif.) according to manufacturer's instructions.
Comparison was made between plasma collected from normal, non-tumor bearing animals (N), control tumor bearing animals receiving vehicle alone (CTL) and plasma collected from experimental animals receiving different doses of PSP-94 (0.1-10.0 ug/kg/day). Plasma calcium levels were determined by atomic absorption spectrophotometry (model 703, Perkin-Elmer, Norwalk, Conn.). For plasma PTHrP, all samples were tested in two dilutions in PTHrP R.I.A. kit (Nichols Institute Diagnostics, San Juan Capistrano, Calif.) according to manufacturers instructions.
FIGS. 10A and 10B show male Copenhagen rats inoculated s.c. with 10^6 Mat Ly Lu-PTHrP cells. Following 3 days of tumor cell inoculation, animals were treated with vehicle alone (Ctl) or different doses (1.0, or 10.0 ug/kg/day) of PSP-94 for 18 days. Animals were sacrificed on day 21 and plasma PTHrP (FIG. 10A; expressed in picomole equivalents/liter) or plasma calcium (FIG. 10B; expressed in millimolar (mM)) levels were determined. Results for non-tumor bearing animals are also shown (N).
Plasma calcium levels from non-tumor bearing animals are also shown (N).

Another test concerns PTHrP. As to the kind of experiment: PTHrP immunohistochemistry of skeletal metastasis (vertebrae). The conditions noted are these: 100.0 ug/kg PCK3145, day 10, vs vehicle. It counts as in vivo, male Copenhagen rats. As for the experimental part:
For example, vertebral columns were fixed and decalcified for a period of 3 weeks. Vertebral column samples were dewaxed in xylene, and rehydrated through a graded alcohol series (100%-70%). For determining the level of expression of PTHrP by skeletal metastasis, the sections were incubated in 1% normal goat serum (Vector Laboratories Inc., Burlingame, Calif., USA) for 30 min at room temperature before treatment with the primary antibody (polyclonal antiserum against PTHrP (1-34) from rabbit) at 1: 200 dilution overnight at 4° C. Biotinylated goat anti-rabbit IgG (Vector Laboratories Inc., Burlingame, Calif., USA) was used as the secondary antibody at 1:200 for 30 min at room temperature. […]
Computer-Assisted Image Analysis. Computer-assisted image analysis was carried out to quantify PTHrP immunostaining and determination of % TV/BV in the vertebral sections. […] The threshold was set by determining the positive staining of control sections and was used to automatically analyze all recorded images of all samples that were stained in the same session under identical conditions. The area of stained regions was calculated automatically by the software in each microscopic field. Pixel counts of the immunoreaction product were calculated automatically and were given as total density of the integrated immunostaining over a given area. […]

The subject of test [3] is Mat Ly Lu-PTHrP cells. In words: DNA fragmentation in vitro (agarose gel). It counts as cell-based, rat. The conditions noted are these: PSP-94 10.0 ug/ml, after 72 hours of treatment. As for the experimental part: In order to investigate the underlying molecular mechanism of action of PSP-94 in reducing tumor growth Mat Ly Lu-PTHrP cells were cultured in the presence of PSP-94 (10.0 ug/ml) or vehicle alone for different time intervals. Genomic DNA was collected from cells cultured in the presence of vehicle alone or PSP-94. Briefly, for DNA fragmentation, Mat Ly Lu-PTHRP cells were plated in 6 well plates (Falcon Plastics, Oxnard, Calif.). Cells were treated with PSP-94 (10.0 ug/ml) for up to 72 hours. DNA from treated cells incubated with PSP-94 and cells treated with vehicle alone was collected using a Phenol:Choloroform:lsoamyl alcohol solution (50:48:2). Equal amounts of DNA were subjected to gel electrophoresis on a 2% agarose gel. DNA fragmentation was visualised by UV light using a transilluminator. More particularly, results presented in FIG. 14A show Mat Ly Lu-PTHrP cells cultured in the presence of vehicle alone or PSP-94 (10.0 ug/ml) for up to […]. DNA was isolated and run in an agarose gel, as described above.

As to “E W Q T D N C E T C T C Y E T (EWQTDNCETCTCYET; PCK3145 (polypeptide 31-45))”, the cell growth entry in the test with Mat Ly Lu-PTHrP cells [1] (PCK3145 1.0-100.0 ug/ml up to 5 days, vs vehicle) is recorded as “dose dependent decrease”. The cell number entry in the test with Mat Ly Lu-PTHrP cells [1] (PCK3145 highest dose 100.0 ug/ml, vs vehicle) is on record as “significant reduction”. Also, the plasma calcium levels entry in test [2] (100.0 ug/kg PCK3145, relative to lower doses) is “more pronounced”; in test [2] (different doses of PCK3145, day 16, vs vehicle) it was “significant reduction”. The “PTHrP staining in Mat Ly Lu-PTHrP cells of the vertebral column (total density)” value in the test with PTHrP is recorded as “significantly lower”.

B1: PSP-94: prostate secretory protein of 94 amino acids; native human seminal plasma PSP-94 (protein)
chain: SCYFIPNEGVPGDSTRKCMDLKGNKHPINSEWQTDNCETCTCYETEISCCTLVSTPVGYDKDNCQRIFKKEDCKYIVVEKKDPKKTCSVSEWII
As for B1, the MatLyLu-PTHrP cell growth entry in the test with Mat Ly Lu-PTHrP cells [1] (10.0 ug/ml PSP-94 for 72 hrs, vs cells without PSP-94) was “significant decrease”. Besides, the plasma calcium levels entry in test [2] (different doses of PSP-94, day 16, vs vehicle) is “significant reduction; also recorded: dose-dependent decrease”; in test [2] (highest dose of PSP-94, 10.0 ug/kg/day) it was “near normalization”. In the test with Mat Ly Lu-PTHrP cells [3], the DNA fragmentation result is “marked DNA fragmentation”.

The record behind these values is patent US20050026833A1, “PSP-94: use for treatment of hypercalcemia and bone metastasis” (priority 2001, published 2005).
